According to patent publication US11713341B1, “Antimicrobial NCR13 variant peptides” (Vestaron Corporation, priority 2022, dated 2023):
Where a SMILES comes first, the peptide text is derived from it.

Tested on: Botrytis cinerea
Experiment: Antimicrobial bioassay (Botrytis cinerea): growth inhibition by OD600
Assay type: cell-based
Settings: for anti-Botrytis activities relative to NCR13a: Botrytis cinerea growth, comparison with NCR13a; for Activity ratio to NCR13a: anti-Botrytis cinerea activity (IC50) relative to comparator NCR13a
Experimental: The antimicrobial effect of the NCR13 variant peptides (NVPs) of the present disclosure were evaluated against the fungal species, Botrytis cinerea. […] The growth of Botrytis cinerea was then assessed via OD600 nm after incubation with a given NVP at room temperature after 96 hours. The IC50 of each peptide analyzed is shown in ppm.
The antimicrobial effect of the NCR13 variant peptides (NVPs) of the present disclosure were evaluated against the fungal species, Botrytis cinerea. […] The growth of Botrytis cinerea was then assessed via OD600 nm after incubation with a given NVP at room temperature after 96 hours.
The NVPs assessed were as follows: NVPM3 (+L) (SEQ ID NO: 5); NVPM5 (+M) (SEQ ID NO: 7); NVPM6 (+F) (SEQ ID NO: 8); NVPM7 (+W) (SEQ ID NO: 9); NVPM9 (+S) (SEQ ID NO: 11); NVPM11 (+Y) (SEQ ID NO: 13); NVPM14 (+D) (SEQ ID NO: 16); and NVPM15 (+E) (SEQ ID NO: 17).
NVPs having an amino acid sequence of SEQ ID NOs: 5, 7, 8, 9, 11, 13, 16, and 17 were generated as described above in Example 1. The peptide, NCR13a, having an amino acid sequence of: […] (SEQ ID NO: 2) was selected as a comparator peptide, with which the antifungal activity of the foregoing NVPs was compared.
The fungal species was Botrytis cinerea was cultured in potato dextrose agar plates. Fungal spores were collected from the agar plates and suspended into de-ionized water, followed by enumeration in a Petroff-Hausser counting chamber (VWR).
The 96-well plates were incubated at room temperature for 96 hours without shaking. The OD600 of the culture plate was determined using SpectraMax plate reader. Relative OD600 was determined by normalizing cell growth to control wells containing neither NVPs nor NCR13a. The OD600 was used to determine IC50.

SMILES	anti-Botrytis activities relative to NCR13a	Activity ratio to NCR13a	IC50 (ppm) (amount required to achieve IC50 in Botrytis cinerea cells, growth by OD600 after 96 hours at room temperature in synthetic fungal medium, 2-fold serial dilution)
CC[C@H](C)[C@H](NC(=O)[C@H](CS)NC(=O)[C@H](CCCCN)NC(=O)[C@@H]1CCCN1C(=O)[C@@H](NC(=O)[C@H](CCCCN)NC(=O)[C@@H]1CCCN1C(=O)[C@H](CCCCN)NC(=O)[C@H](CCCNC(=N)N)NC(=O)[C@H](CS)NC(=O)[C@H](C)NC(=O)[C@H](Cc1ccccc1)NC(=O)[C@H](CCCCN)NC(=O)[C@H](CCCCN)NC(=O)[C@H](CS)NC(=O)[C@H](CC(=O)O)NC(=O)[C@H](CCCCN)NC(=O)[C@H](CC(=O)O)NC(=O)[C@H](CO)NC(=O)[C@H](CCC(N)=O)NC(=O)[C@H](CS)NC(=O)[C@@H]1CCCN1C(=O)[C@H](CCCCN)NC(=O)[C@@H](NC(=O)[C@@H](N)Cc1c[nH]c2ccccc12)[C@@H](C)O)C(C)C)C(=O)N[C@@H](CC(N)=O)C(=O)NCC(=O)N[C@@H](Cc1ccccc1)C(=O)N[C@@H](CS)C(=O)N[C@@H](CCCCN)C(=O)N[C@@H](CS)C(=O)N[C@H](C(=O)N[C@@H](CCCNC(=N)N)C(=O)O)C(C)C [NVPM7] (H-WTKPCQSDKDCKKFACRKPKVPKCINGFCKCVR-OH; N-terminus and C-terminus assumed)	improved anti-Botrytis activities relative to NCR13a	2.71	
CC[C@H](C)[C@H](NC(=O)[C@H](CS)NC(=O)[C@H](CCCCN)NC(=O)[C@@H]1CCCN1C(=O)[C@@H](NC(=O)[C@H](CCCCN)NC(=O)[C@@H]1CCCN1C(=O)[C@H](CCCCN)NC(=O)[C@H](CCCNC(=N)N)NC(=O)[C@H](CS)NC(=O)[C@H](C)NC(=O)[C@H](Cc1ccccc1)NC(=O)[C@H](CCCCN)NC(=O)[C@H](CCCCN)NC(=O)[C@H](CS)NC(=O)[C@H](CC(=O)O)NC(=O)[C@H](CCCCN)NC(=O)[C@H](CC(=O)O)NC(=O)[C@H](CO)NC(=O)[C@H](CCC(N)=O)NC(=O)[C@H](CS)NC(=O)[C@@H]1CCCN1C(=O)[C@H](CCCCN)NC(=O)[C@@H](NC(=O)[C@@H](N)CC(C)C)[C@@H](C)O)C(C)C)C(=O)N[C@@H](CC(N)=O)C(=O)NCC(=O)N[C@@H](Cc1ccccc1)C(=O)N[C@@H](CS)C(=O)N[C@@H](CCCCN)C(=O)N[C@@H](CS)C(=O)N[C@H](C(=O)N[C@@H](CCCNC(=N)N)C(=O)O)C(C)C [NVPM3] (H-LTKPCQSDKDCKKFACRKPKVPKCINGFCKCVR-OH; N-terminus and C-terminus assumed)	improved anti-Botrytis activities relative to NCR13a	4.14	
CC[C@H](C)[C@H](NC(=O)[C@H](CS)NC(=O)[C@H](CCCCN)NC(=O)[C@@H]1CCCN1C(=O)[C@@H](NC(=O)[C@H](CCCCN)NC(=O)[C@@H]1CCCN1C(=O)[C@H](CCCCN)NC(=O)[C@H](CCCNC(=N)N)NC(=O)[C@H](CS)NC(=O)[C@H](C)NC(=O)[C@H](Cc1ccccc1)NC(=O)[C@H](CCCCN)NC(=O)[C@H](CCCCN)NC(=O)[C@H](CS)NC(=O)[C@H](CC(=O)O)NC(=O)[C@H](CCCCN)NC(=O)[C@H](CC(=O)O)NC(=O)[C@H](CO)NC(=O)[C@H](CCC(N)=O)NC(=O)[C@H](CS)NC(=O)[C@@H]1CCCN1C(=O)[C@H](CCCCN)NC(=O)[C@@H](NC(=O)[C@@H](N)CO)[C@@H](C)O)C(C)C)C(=O)N[C@@H](CC(N)=O)C(=O)NCC(=O)N[C@@H](Cc1ccccc1)C(=O)N[C@@H](CS)C(=O)N[C@@H](CCCCN)C(=O)N[C@@H](CS)C(=O)N[C@H](C(=O)N[C@@H](CCCNC(=N)N)C(=O)O)C(C)C [NVPM9] (H-STKPCQSDKDCKKFACRKPKVPKCINGFCKCVR-OH; N-terminus and C-terminus assumed)	improved anti-Botrytis activities relative to NCR13a	1.66	
CC[C@H](C)[C@H](NC(=O)[C@H](CS)NC(=O)[C@H](CCCCN)NC(=O)[C@@H]1CCCN1C(=O)[C@@H](NC(=O)[C@H](CCCCN)NC(=O)[C@@H]1CCCN1C(=O)[C@H](CCCCN)NC(=O)[C@H](CCCNC(=N)N)NC(=O)[C@H](CS)NC(=O)[C@H](C)NC(=O)[C@H](Cc1ccccc1)NC(=O)[C@H](CCCCN)NC(=O)[C@H](CCCCN)NC(=O)[C@H](CS)NC(=O)[C@H](CC(=O)O)NC(=O)[C@H](CCCCN)NC(=O)[C@H](CC(=O)O)NC(=O)[C@H](CO)NC(=O)[C@H](CCC(N)=O)NC(=O)[C@H](CS)NC(=O)[C@@H]1CCCN1C(=O)[C@H](CCCCN)NC(=O)[C@@H](NC(=O)CN)[C@@H](C)O)C(C)C)C(=O)N[C@@H](CC(N)=O)C(=O)NCC(=O)N[C@@H](Cc1ccccc1)C(=O)N[C@@H](CS)C(=O)N[C@@H](CCCCN)C(=O)N[C@@H](CS)C(=O)N[C@H](C(=O)N[C@@H](CCCNC(=N)N)C(=O)O)C(C)C [NCR13a, reference compound] (H-GTKPCQSDKDCKKFACRKPKVPKCINGFCKCVR-OH; N-terminus and C-terminus assumed)		1	2.36
